According to patent US11033604B2, “Reagents and methods for treating bacterial infection” (priority 2018, dated 2021):
Positions of bridges follow the written chain, without caps; N, C: chain ends. Non-standard residues stand in square brackets, D forms with d. No end group written: not given here.

How the values were obtained:
[1] = test system: S. aureus MN8+mCherry biofilms; assay: Fluorescence microscopy of biofilm adhesion to glass; type: cell-based, Staphylococcus aureus; conditions: 80 μM, 24 h, 37° C.
Method: FIG. 2. S. aureus biofilm structures become less robust when grown in the presence of designed peptide inhibitors. (A) S. aureus MN8+mCherry™ biofilms were grown on glass substrates for 24 hours and then cells were washed and fixed. Addition of peptide inhibitors (80 μM) reduced adhesion to the slide, causing cells to detach during the wash step. Images are representative of duplicate wells. (B) In S. aureus SH1000 WT biofilms grown in regular LB medium, PSM amyloid fibrils are visible as deposits in spaces between cells (left). Upon addition of the designed peptide AP90 (80 μM), no extracellular fibril deposits were observed (right).
To further investigate the ability of designed peptides to inhibit PSM amyloid formation, fluorescent (mCherry™ ) MN8 biofilms were grown in culture plates with glass bottom wells. After 24 hours at 37° C. the biofilms were gently rinsed with pipetted saline to remove unattached biomass and the remaining attached cells were fixed and imaged. […] These qualitative results are in good agreement with the quantitative results obtained for amyloid inhibition in FIG. 1B. Addition of anti-α-sheet peptides triggered a significant reduction in PSM amyloid formation as measured by ThT fluorescence and also served to weaken the S. aureus biofilms by reducing the PSM amyloid fibril content of the extracellular matrix. […]

[2] = test system: csgA expression; assay: RT-qPCR of csgA expression in biofilms; type: cell-based, E. coli; conditions: biofilms grown with peptide vs peptide-free controls
From the text: UTI89 biofilms were also cultivated in the presence of an unstructured peptide, P1, which retains a mixture of L- and D-amino acids but lacks the α-sheet secondary structure of AP193.

[3] = test system: bacterial biofilm on glass disks; assay: Biofilm formation on α-sheet peptide coated glass disk; type: cell-based; conditions: polydopamine-grafted peptide, FIG. 17 (dimeric AP193)
From the text: FIG. 17. Bacterial adherence and growth of biofilm on glass disks and decreased adhesion of bacteria (GFP signal) and biofilm and amyloid formation (Brightfield image) when glass is coated with α-sheet peptides, shown for dimeric AP193. This is a model for biofilm formation on implanted devices such as prosthetic joints.
We have conjugated α-sheet peptides to other functional molecules to enhance their efficacy at the site of biofilm infection, i.e., the surface of biomedical implants. To this end, we used a polydopamine (PDA) coating approach to facilitate attachment of α-sheet peptides to biomedical implant materials. […]
For α-sheet peptide grafting, 0.5 mg/mL peptide (e.g. AP90, AP193, or P1 as a control) was dissolved in 10 mM Tris pH 8.0 and then applied to PDA-coated substrates for overnight reaction (18 hours). […] First, the concentration of peptide remaining in solution after conjugation was measured by NanoOrange™ assay to determine coupling efficiency and surface density. Second, accessibility of α-sheet peptides on the surface was determined by immunofluorescence; PGPMs were blocked with 5% BSA solution for 12 h, incubated with AlexaFluor®568-conjugated Pac53 antibody (which recognizes α-sheet peptides), and then washed and imaged on a fluorescent microscope to ensure attachment to the disks. […]

Substance | Biofilm attachment to glass after rinsing [1] | csgA expression (RT-qPCR) [2] | Amount of bacterial biofilm on peptide-coated glass disk [3]
RGEmNlCwMNEYSGWcMnLkMGR (RGE[dM]N[dL]C[dW]MNEYSGW[dC]M[dN]L[dK]MGR; disulfide 7-16 (inferred)) [AP407, variant of AP90 with a disulfide bond] | caused nearly all of the biofilm to detach |  | 
RGEmNyFwMNEYYGWtMnCkMGR (RGE[dM]N[dY]F[dW]MNEYYGW[dT]M[dN]C[dK]MGR) [AP193, hydrophobic AP90 derivative, variant to support different chemical coupling reactions] |  | did not reveal any significant changes in csgA expression | dramatic drop in the amount of bacterial biofilm
